This is an account of results in patent publication US8420606B2, “Method of utilizing physiological activity of rare saccharide and composition containing rare saccharide” (priority 2002, dated 2013).

Experiment [1] has as its system skin keratinocyte (HaCaT). Nature of the experiment: proliferation of cultured cells, MTT method, HaCaT. It counts as cell-based, human. The settings on record: saccharide 50 mM, 4 to 5 days. As to the method:
(§1) Various kinds of rare saccharides were added at a concentration of 50 mM to culture media under the following conditions, and an influence of each rare saccharide upon the progress of proliferation of cancer cell strains was examined.
(§2) (1) Target cells to which the rare saccharides were added: Hepatic cancer cells (HepG2), uterine cancer cells (He1a), ovary cancer cells (OVCAR3), and skin keratinocyte (HaCaT) were selected as target cells to which the rare saccharides were added.
(§3) (2) Rare saccharides added: In addition to D-allose, glucose and D-altros as rare saccharides belonging to ketose were added, as other comparative saccharides, to the addition target cells. Also, D-fructose was employed as a control.
(§4) (3) Experiment method: A number 3,000-5,000 of addition target cells per type were inoculated into a multi-well plastic dish (hereinafter referred to as a “well”) having 96 wells, and were cultured for 4 to 5 days in a culture medium supplemented with 5 to 10% of Fetal Bovine Serum (FBS) depending on the cell types. […] To examine the influence upon the cell proliferation, the cell number was measured in units of 24 hours by using the MTT method described below. […]
(§5) (2) Test method: The cells were treated with TEP to prepare a cell suspension liquid. […] The absorbance of the liquid was measured at a wavelength of 570 to 600 nm by using a spectrophotometer. […]

Experiment [2] has as its system uterine cancer cells (He1a). Nature of the experiment: proliferation of cultured cells, MTT method, He1a. The class given is cell-based, human. The following applies: saccharide 50 mM, 4 to 5 days. As to the method:
as §1, §2, §3, §4, §5
For orientation: Tetrazolium dyes change colour on reduction, which living cells bring about.

Experiment [3] concerns OVCAR3 (ovary cancer) cells. Nature of the experiment: cell cycle analysis by flow cytometer. The class given is cell-based, human. The following applies: D-allose 50 mM, cultured for 3 days; control 12.6%. As to the method: (2) Method: The cell cycle was analyzed by using a flow cytometer. Cells used here were OVCAR3 (ovary cancer) cells. 1) The cells were treated with trypsin to prepare a cell suspension liquid. 2) The cells were inaculated into a plastic tissue with a diameter of 100 mm and cultured for 24 hours (overnight) in a CO2 incubator. 3) Two groups of the cells, i.e., one with a rare saccharide (D-allose 50 mM) and the other with no rare saccharides (with D-glucose as a control), were cultured for 3 days. 4) The separated cells were washed twice with PBS(−). 5) After centrifugation, 3 mL of PBS(−) was added and stirred by pipetting. 6) 7 mL of 100% ethanol was added, followed by fixation at 4° C. for 2 hours. 7) The liquid was subjected to centrifugation at 1500 rpm for 5 minutes. 8) The separated cells were washed twice with cold PBS(−). 9) After centrifugation, 200 μg/mL of RNase was added, followed by incubation at 37° C. for 30 minutes. 10) 0.5 mL of PI (propidum iodide) was added, followed by incubation for 15 minutes. 11) The cell number was measured by using a flow cytometer.
For orientation: In flow cytometry, cells or beads pass a laser one at a time.

A short description of experiment [4]: influence of psicose upon hyperglycemia. It counts as in vivo, rat. The following applies: 0.5 g/kg intravenous; compared with deoxyglucose control. As to the method: IVGTT was conducted on 8-week old male SD rats by inserting a catheter through the jugular vein, injecting 50% glucose at intervals of 20 minutes to make a hyperglycemic state, and then injecting psicose and deoxyglucose. A rare saccharide was administrated to 1 rat, and deoxyglucose was administrated to 1 rat.
Perform intravenous injection (IV) at 0.5 g/kg (i.e., 0.5 g/1000 g=500 mg/1000 g=0.5 mg/g).
Prepare rare-saccharide and deoxyglucose solutions in concentration of 0.5 g/mL (i.e., 0.5 g/1000 ul=500 mg/1000 ul=0.5 mg/ul). Prepare 2 mL of solution for each concentration.
Intravenously inject 200 ul of the solution for a 200 g rat.
Intravenously inject 250 ul of the solution for a 250 g rat.
Inject 300 ul of physiological saline after the intravenous injection.
Collect 150 ul of blood sample.
Collect blood at 9 points in time, i.e., 0, 5, 10, 15, 20, 25, 30, 45 and 60 minutes.

The test system of experiment [5] is Human vascular endothelial cells (HUVECs). Nature of the experiment: MCP-1 secretion from vascular endothelial cells, ELISA. The class given is cell-based. The settings on record: D-psicose 0, 5.6, 11.2 mM, 24 hours. As to the method: Human vascular endothelial cells (HUVECs) were cultured under the culture medium condition of (DMEM +10% FBS) in accordance with the ordinary method. HUVECs at concentration of about 70% were pipitted into a 96-well culture dish, and the following experiments were performed.
D-psicose was added to the HUVECs culture medium at concentrations of 0 mM, 5.6 mM and 11.2 mM. After cultivation for 24 hours, MCP-1 in the culture medium was measured by using an ELISA (Quantikine, R&D) kit.
HUVECs were pretreated for 1 hour with cytokines acting upon HUVECs and stimulating secretion of MCP-1, i.e., IL-1β (maximum secretion stimulus concentration of 1 ng/mL), and TNF-α (maximum secretion stimulus concentration of 10 ng/mL). Then, D-psicose was added at concentrations of 0 mM, 5.6 mM and 11.2 mM, and after 24-hour cultivation, the MCP-1 concentration in the culture medium was measured by using the ELISA kit. […] The secretion of MCP-1 in the vascular endothelial cells is stimulated by cytokines (IL-1β, TNF-α) at maximum secretion stimulus concentration of 1 ng/mL for IL-1β and 10 ng/mL for TNF-α.
(In general: ELISA stands for enzyme-linked immunosorbent assay.)

“Also recorded” adds a separate entry of the source.

As for `O=C[C@H](O)[C@H](O)[C@H](O)[C@H](O)CO` [D-allose], the “proliferation of HaCaT cells (cell number over time)” value in experiment [1] is given as “strongly inhibited proliferation; also recorded: has a proliferation inhibitory effect”. In addition, the “proliferation of He1a cells (cell number over time)” value in experiment [2] is “strongly inhibited proliferation; also recorded: has a proliferation inhibitory effect”. In addition, the “proportion of the cells in G2-M stage of the cell cycle” value in experiment [3] stood at 22.6%.

For `O=C(CO)[C@H](O)[C@H](O)[C@H](O)CO` [D-psicose], in experiment [4], the “blood sugar value in hyperglycemic state” value is “reduced more quickly” and the “insulin concentration in hyperglycemic state” value is recorded as “an increase in the insulin secretion”. Besides, the “basic secretion of MCP-1” value in experiment [5] is given as “able to inhibit the secretion of MCP-1 depending on the concentration; also recorded: has a MCP-1 secretion inhibitory effect”. Besides, the “cytokine-stimulated secretion of MCP-1” value in experiment [5] (IL-1β 1 ng/mL pretreatment 1 hour) is “inhibited by added D-psicose depending on the concentration; also recorded: inhibits secretion of MCP-1”.
